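Grown in 96-well plates, cells were treated for 48 hours with each compound at five concentrations. Insufficient inhibition: endpoint recorded as highest concentration tested. GI50 is the concentration that inhibits growth by half.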 Active and inactive are the calls of the source. Rule as the data show it: active = GI50 up to about 1.1 µM and inactive = higher. Peptide text beside a SMILES is read from it. * marks the point of attachment. Boc = CC(C)(C)OC(=O)*
Tests used:
Assay in all cases: NCI anticancer screen, dose series, 48 h
[1] = test system: SW-620
[2] = test system: UACC-257
[3] = test system: SK-MEL-28
[4] = test system: T47D
[5] = test system: SK-MEL-5
[6] = test system: HCC 2998
[7] = test system: U-251
[8] = test system: OVCAR-3
[9] = test system: OVCAR-5
[10] = test system: MDA-MB-231
[11] = test system: RPMI-8226
[12] = test system: MDA-MB-435
[13] = test system: OVCAR-4
[14] = test system: BT-549
[15] = test system: COLO 205
[16] = test system: NCI-H226
[17] = test system: SNB-19
[18] = test system: OVCAR-8
[19] = test system: EKVX
[20] = test system: A498

SMILES	GI50 [1]	GI50 [2]	GI50 [3]	GI50 [4]	GI50 [5]	GI50 [6]	GI50 [7]	GI50 [8]	GI50 [9]	GI50 [10]	GI50 [11]	GI50 [12]	GI50 [13]	GI50 [14]	GI50 [15]	GI50 [16]	GI50 [17]	GI50 [18]	GI50 [19]	GI50 [20]
O=C(NN=C1CCCCC1)Nc1ccccc1Cl	43.8 µM (inactive)	78.7 µM (inactive)	79.3 µM (inactive)	29.5 µM (inactive)	27.3 µM (inactive)	59.3 µM (inactive)	84.5 µM (inactive)	16.4 µM (inactive)	54.2 µM (inactive)	> 100 µM (inactive)	45.9 µM (inactive)	16.6 µM (inactive)	> 100 µM (inactive)	64.4 µM (inactive)	31.3 µM (inactive)	39.9 µM (inactive)	64.3 µM (inactive)	62.5 µM (inactive)	52.8 µM (inactive)	–
COC(=O)C1=CS/C(=C2\S[C@@H]3[C@H](S2)[C@H]2C=C[C@@H]3C2)S1	13.1 µM (inactive)	66.5 µM (inactive)	62.7 µM (inactive)	> 100 µM (inactive)	17.9 µM (inactive)	–	8.49 µM (inactive)	33.2 µM (inactive)	–	> 100 µM (inactive)	30.7 µM (inactive)	2.06 µM (inactive)	> 100 µM (inactive)	> 100 µM (inactive)	32.8 µM (inactive)	87.7 µM (inactive)	77.1 µM (inactive)	> 100 µM (inactive)	–	4.52 µM (inactive)
COc1ccc(/C=C2\C[C@H]3[C@@H]4CC=C5C[C@@H](O)CC[C@]5(C)[C@H]4CC[C@]3(C)\C2=N\O)cc1	26.7 µM (inactive)	7.21 µM (inactive)	24.2 µM (inactive)	1.26 µM (inactive)	5.04 µM (inactive)	–	10.5 µM (inactive)	6.89 µM (inactive)	–	35.2 µM (inactive)	2.26 µM (inactive)	10.5 µM (inactive)	51.5 µM (inactive)	7.69 µM (inactive)	10 µM (inactive)	19.3 µM (inactive)	25.8 µM (inactive)	–	1.41 µM (inactive)	25.9 µM (inactive)
Oc1ncnc2c1nnn2CCCCCCCCCCCCn1nnc2c(O)ncnc21	> 100 µM (inactive)	20.3 µM (inactive)	> 93.1 µM (inactive)	0.641 µM (active)	19.8 µM (inactive)	> 78.7 µM (inactive)	21.5 µM (inactive)	40.5 µM (inactive)	99.1 µM (inactive)	–	> 100 µM (inactive)	> 100 µM (inactive)	> 90.6 µM (inactive)	28.8 µM (inactive)	> 83.4 µM (inactive)	32.6 µM (inactive)	20.2 µM (inactive)	41.5 µM (inactive)	21.3 µM (inactive)	25.2 µM (inactive)
COC(CNC(=O)C(C)NC(=O)/C=C/c1ccccc1)OC (configuration not stated)	> 100 µM (inactive)	> 100 µM (inactive)	–	> 100 µM (inactive)	> 100 µM (inactive)	–	> 100 µM (inactive)	–	> 100 µM (inactive)	> 100 µM (inactive)	> 100 µM (inactive)	> 100 µM (inactive)	–	> 100 µM (inactive)	> 100 µM (inactive)	> 100 µM (inactive)	> 100 µM (inactive)	> 100 µM (inactive)	> 100 µM (inactive)	–
CCN(CC)Cc1nc(C2CCC([N+](=O)[O-])O2)no1 (configuration not stated)	19.4 µM (inactive)	19.9 µM (inactive)	20.3 µM (inactive)	27.2 µM (inactive)	16.4 µM (inactive)	20.6 µM (inactive)	28.5 µM (inactive)	23.8 µM (inactive)	29.3 µM (inactive)	26.7 µM (inactive)	31.3 µM (inactive)	18.1 µM (inactive)	77.3 µM (inactive)	23.3 µM (inactive)	16.6 µM (inactive)	67.8 µM (inactive)	28.6 µM (inactive)	30.1 µM (inactive)	> 100 µM (inactive)	–
CC1=NC(=Cc2cc(Br)cc(Br)c2)C(=O)N1n1c(-c2ccccc2)nc2ccccc2c1=O	> 100 µM (inactive)	> 100 µM (inactive)	> 100 µM (inactive)	> 100 µM (inactive)	> 100 µM (inactive)	> 100 µM (inactive)	> 100 µM (inactive)	> 100 µM (inactive)	> 100 µM (inactive)	> 100 µM (inactive)	> 100 µM (inactive)	72.3 µM (inactive)	> 100 µM (inactive)	> 100 µM (inactive)	> 100 µM (inactive)	> 100 µM (inactive)	> 100 µM (inactive)	> 100 µM (inactive)	> 100 µM (inactive)	–
Cc1cc2nc3c(C#N)c(-c4ccccc4)cc(Nc4ccc(F)cc4)n3c2cc1C	55.5 µM (inactive)	7.5 µM (inactive)	46.2 µM (inactive)	> 100 µM (inactive)	16 µM (inactive)	–	4.33 µM (inactive)	12.2 µM (inactive)	15.6 µM (inactive)	15.1 µM (inactive)	> 100 µM (inactive)	> 100 µM (inactive)	53.6 µM (inactive)	22.6 µM (inactive)	> 100 µM (inactive)	27.2 µM (inactive)	–	10.7 µM (inactive)	14.6 µM (inactive)	22.1 µM (inactive)
CNC(=O)C1CCCN1C(=O)C(Cc1c[nH]cn1)NC(=O)C1CCC(=O)N1 (configuration not stated)	> 100 µM (inactive)	–	> 100 µM (inactive)	> 100 µM (inactive)	> 100 µM (inactive)	> 100 µM (inactive)	> 100 µM (inactive)	> 100 µM (inactive)	> 100 µM (inactive)	> 100 µM (inactive)	> 100 µM (inactive)	> 100 µM (inactive)	> 100 µM (inactive)	> 100 µM (inactive)	> 100 µM (inactive)	> 100 µM (inactive)	> 100 µM (inactive)	> 100 µM (inactive)	> 100 µM (inactive)	–
N#Cc1c2c(c(Nc3cccc(C(F)(F)F)c3)n3c1nc1ccccc13)CCC2	> 100 µM (inactive)	> 100 µM (inactive)	> 100 µM (inactive)	> 100 µM (inactive)	> 100 µM (inactive)	–	> 100 µM (inactive)	> 100 µM (inactive)	> 100 µM (inactive)	> 100 µM (inactive)	> 100 µM (inactive)	> 100 µM (inactive)	> 100 µM (inactive)	60.7 µM (inactive)	> 100 µM (inactive)	> 100 µM (inactive)	–	> 100 µM (inactive)	> 100 µM (inactive)	> 100 µM (inactive)
O=C(Cc1ccccc1)NNc1nc(NNC(=O)c2ccncc2)nc(Nc2ccccc2)n1	–	> 10 µM (inactive)	> 10 µM (inactive)	> 10 µM (inactive)	–	> 10 µM (inactive)	> 10 µM (inactive)	–	–	> 10 µM (inactive)	> 10 µM (inactive)	–	> 10 µM (inactive)	> 10 µM (inactive)	> 10 µM (inactive)	–	–	> 10 µM (inactive)	> 10 µM (inactive)	–
O=C1N(c2ccccc2)C2(c3ccccc3)CC3CCCC13S2 (configuration not stated)	50.7 µM (inactive)	16.7 µM (inactive)	> 100 µM (inactive)	31.3 µM (inactive)	33.3 µM (inactive)	–	49.5 µM (inactive)	55.5 µM (inactive)	> 100 µM (inactive)	72.1 µM (inactive)	27.5 µM (inactive)	33.3 µM (inactive)	27.8 µM (inactive)	51.3 µM (inactive)	43 µM (inactive)	63.4 µM (inactive)	> 100 µM (inactive)	> 100 µM (inactive)	71.8 µM (inactive)	75 µM (inactive)
COC(=O)c1c(C#N)[nH]c(-c2ccsc2)c1C(=O)OC	> 100 µM (inactive)	40.6 µM (inactive)	> 100 µM (inactive)	37.1 µM (inactive)	39 µM (inactive)	–	> 100 µM (inactive)	> 100 µM (inactive)	> 100 µM (inactive)	> 100 µM (inactive)	40.4 µM (inactive)	> 100 µM (inactive)	–	> 100 µM (inactive)	> 100 µM (inactive)	> 100 µM (inactive)	–	> 100 µM (inactive)	> 100 µM (inactive)	> 100 µM (inactive)
CSCCC(NC(=O)C(CC(C)C)NC(=O)CNC(=O)OC(C)(C)C)C(=O)N(C)C (stereo not drawn) (Boc-Gly-Leu-Met-NMe2; configuration not given here)	> 100 µM (inactive)	> 100 µM (inactive)	> 100 µM (inactive)	> 100 µM (inactive)	> 100 µM (inactive)	–	> 100 µM (inactive)	–	> 100 µM (inactive)	> 100 µM (inactive)	–	> 100 µM (inactive)	> 100 µM (inactive)	> 100 µM (inactive)	> 100 µM (inactive)	> 100 µM (inactive)	> 100 µM (inactive)	> 100 µM (inactive)	> 100 µM (inactive)	> 100 µM (inactive)
CC(C)(C)NCC(O)COc1cccc2[nH]c(C#N)cc12 (configuration not stated) [CYANOPINDOLOL]	> 100 µM (inactive)	–	> 100 µM (inactive)	> 100 µM (inactive)	> 100 µM (inactive)	–	> 100 µM (inactive)	> 100 µM (inactive)	> 100 µM (inactive)	> 100 µM (inactive)	> 100 µM (inactive)	> 100 µM (inactive)	> 100 µM (inactive)	> 100 µM (inactive)	56 µM (inactive)	> 100 µM (inactive)	> 100 µM (inactive)	> 100 µM (inactive)	> 100 µM (inactive)	68.1 µM (inactive)
